The term inhibition denotes the change of the read-out against control, counted positive when it falls. Lower therefore signals little suppression.

This is an account of results in ChEMBL document CHEMBL1131542, “A potent dipeptide inhibitor of dipeptidyl peptidase IV” (Bioorg Med Chem Lett, 1998).

Molecules are shown by their SMILES. Square brackets hold non-standard residues; d marks the D form. Peptide text beside a SMILES is read from it. Tic = O=C(O)[C@@H]1Cc2ccccc2CN1

The target of the first assay is T1, Dipeptidyl peptidase 4 (Homo sapiens, UniProt P27487). The assay is described as follows: Percent inhibition of Dipeptidyl peptidase IV (DPP IV) at a concentration of 10 uM.
T1 sequence (P27487 whole entry, looked up): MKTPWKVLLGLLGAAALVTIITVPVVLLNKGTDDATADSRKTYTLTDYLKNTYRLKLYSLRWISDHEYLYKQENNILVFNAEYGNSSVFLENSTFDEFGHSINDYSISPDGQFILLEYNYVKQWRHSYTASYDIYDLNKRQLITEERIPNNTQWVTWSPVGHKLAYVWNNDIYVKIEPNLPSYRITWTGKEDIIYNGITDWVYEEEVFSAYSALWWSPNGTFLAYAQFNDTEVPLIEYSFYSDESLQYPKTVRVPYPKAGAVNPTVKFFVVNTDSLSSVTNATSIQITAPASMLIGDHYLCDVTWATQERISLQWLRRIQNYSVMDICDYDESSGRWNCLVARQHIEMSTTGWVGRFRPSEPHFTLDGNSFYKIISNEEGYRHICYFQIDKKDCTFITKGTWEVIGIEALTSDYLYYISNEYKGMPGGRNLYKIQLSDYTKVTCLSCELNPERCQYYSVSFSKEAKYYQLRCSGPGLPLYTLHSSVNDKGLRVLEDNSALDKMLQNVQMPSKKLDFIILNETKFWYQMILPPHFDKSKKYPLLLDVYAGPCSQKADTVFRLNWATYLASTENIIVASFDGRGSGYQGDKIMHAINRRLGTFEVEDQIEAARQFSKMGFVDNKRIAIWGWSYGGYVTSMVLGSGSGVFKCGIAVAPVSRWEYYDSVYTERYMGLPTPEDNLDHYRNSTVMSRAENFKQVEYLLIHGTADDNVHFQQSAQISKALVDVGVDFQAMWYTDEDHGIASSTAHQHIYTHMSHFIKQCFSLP
Turning to `CC[C@@H](C)[C@H](NC(=O)[C@@H]1Cc2ccccc2CN1C(=O)[C@@H](N)Cc1c[nH]c2ccccc12)C(=O)O`, the inhibition came to 32%.

Turning to `C[C@H](O)[C@H](NC(=O)[C@@H]1Cc2ccccc2CN1C(=O)[C@@H](N)Cc1c[nH]c2ccccc12)C(=O)O`, the inhibition is 37%. With `N[C@@H](Cc1c[nH]c2ccccc12)C(=O)N[C@@H](CCC(=O)O)C(=O)O` (H-Trp-Glu-OH), the inhibition came out at 3%. The same measure, in the same setting: the result for `N[C@@H](Cc1c[nH]c2ccccc12)C(=O)N[C@@H](Cc1ccccc1)C(=O)O` (H-Trp-Phe-OH) reads 0%; that for `N[C@@H](Cc1c[nH]c2ccccc12)C(=O)N1CCC[C@H]1C(=O)O` (H-Trp-Pro-OH), 15%. In turn, `N[C@@H](Cc1c[nH]c2ccccc12)C(=O)N[C@@H](Cc1c[nH]c2ccccc12)C(=O)O` (H-Trp-Trp-OH) came in with an inhibition of 2%. Same read-out and setting: next, `N[C@@H](Cc1c[nH]c2ccccc12)C(=O)N[C@@H](Cc1ccc(O)cc1)C(=O)O` (H-Trp-Tyr-OH): 10%. Turning to `CC(C)[C@H](NC(=O)[C@@H](N)Cc1c[nH]c2ccccc12)C(=O)O` (H-Trp-Val-OH), the inhibition was determined as 4%. `C[C@H](NC(=O)[C@@H]1Cc2ccccc2CN1C(=O)[C@@H](N)Cc1c[nH]c2ccccc12)C(=O)O` (H-Trp-[Tic]-Ala-OH) yielded an inhibition of 43%. Same read-out and setting: the result for `NC(N)=NCCC[C@H](NC(=O)[C@@H]1Cc2ccccc2CN1C(=O)[C@@H](N)Cc1c[nH]c2ccccc12)C(=O)O` (H-Trp-[Tic]-Arg-OH) reads 38%; that for `NC(=O)C[C@H](NC(=O)[C@@H]1Cc2ccccc2CN1C(=O)[C@@H](N)Cc1c[nH]c2ccccc12)C(=O)O` (H-Trp-[Tic]-Asn-OH), 46%. Take `N[C@@H](Cc1c[nH]c2ccccc12)C(=O)N1Cc2ccccc2C[C@H]1C(=O)N[C@@H](CC(=O)O)C(=O)O` (H-Trp-[Tic]-Asp-OH): the inhibition came to 38%. On the same count and under the same terms, the result for `N[C@@H](Cc1c[nH]c2ccccc12)C(=O)N1Cc2ccccc2C[C@H]1C(=O)N[C@@H](CS)C(=O)O` (H-Trp-[Tic]-Cys-OH) reads 49%; that for `NC(=O)CC[C@H](NC(=O)[C@@H]1Cc2ccccc2CN1C(=O)[C@@H](N)Cc1c[nH]c2ccccc12)C(=O)O` (H-Trp-[Tic]-Gln-OH), 49%.

In turn, `N[C@@H](Cc1c[nH]c2ccccc12)C(=O)N1Cc2ccccc2C[C@H]1C(=O)NCC(=O)O` (H-Trp-[Tic]-Gly-OH) had an inhibition of 34%. On the same count and under the same terms, the result for `N[C@@H](Cc1c[nH]c2ccccc12)C(=O)N1Cc2ccccc2C[C@H]1C(=O)N[C@@H](Cc1c[nH]cn1)C(=O)O` (H-Trp-[Tic]-His-OH) reads 35%.

In turn, `CC(C)C[C@H](NC(=O)[C@@H]1Cc2ccccc2CN1C(=O)[C@@H](N)Cc1c[nH]c2ccccc12)C(=O)O` (H-Trp-[Tic]-Leu-OH) returned an inhibition of 25%. Still for that read-out and setting: next, `NCCCC[C@H](NC(=O)[C@@H]1Cc2ccccc2CN1C(=O)[C@@H](N)Cc1c[nH]c2ccccc12)C(=O)O` (H-Trp-[Tic]-Lys-OH): 27%.

Molecule `CSCC[C@H](NC(=O)[C@@H]1Cc2ccccc2CN1C(=O)[C@@H](N)Cc1c[nH]c2ccccc12)C(=O)O` (H-Trp-[Tic]-Met-OH) returned an inhibition of 43%. On the same count and under the same terms, next, `N[C@@H](Cc1c[nH]c2ccccc12)C(=O)N1Cc2ccccc2C[C@H]1C(=O)N[C@@H](Cc1ccccc1)C(=O)O` (H-Trp-[Tic]-Phe-OH): 29%; `N[C@@H](Cc1c[nH]c2ccccc12)C(=O)N1Cc2ccccc2C[C@H]1C(=O)N1CCC[C@H]1C(=O)O` (H-Trp-[Tic]-Pro-OH): 20%; `N[C@@H](Cc1c[nH]c2ccccc12)C(=O)N1Cc2ccccc2C[C@H]1C(=O)N[C@@H](Cc1c[nH]c2ccccc12)C(=O)O` (H-Trp-[Tic]-Trp-OH): 37%. Still for that read-out and setting: next, `N[C@@H](Cc1c[nH]c2ccccc12)C(=O)N1Cc2ccccc2C[C@H]1C(=O)N[C@@H](Cc1ccc(O)cc1)C(=O)O` (H-Trp-[Tic]-Tyr-OH): 36%; `CC(C)[C@H](NC(=O)[C@@H]1Cc2ccccc2CN1C(=O)[C@@H](N)Cc1c[nH]c2ccccc12)C(=O)O` (H-Trp-[Tic]-Val-OH): 19%.

The target of a further assay is T1, Dipeptidyl peptidase 4. The assay is described as follows: Percent inhibition against Dipeptidyl peptidase IV (DPP IV) at a concentration of 1 uM.
Molecule `CC[C@H](C)[C@H](NC(=O)[C@H](Cc1c[nH]cn1)NC(=O)CNC(=O)[C@H](CCC(=O)O)NC(=O)[C@H](CCC(N)=O)NC(=O)[C@H](CC(=O)O)NC(=O)[C@H](CC(N)=O)NC(=O)[C@H](CCCN=C(N)N)NC(=O)[C@H](C)NC(=O)[C@@H]1Cc2ccccc2CN1C(=O)[C@H]1CCCN1)C(=O)N[C@@H](CC(C)C)C(=O)N[C@@H](CCCCN)C(=O)N[C@@H](CCSC)C(=O)N[C@@H](Cc1ccccc1)C(=O)N1CCC[C@H]1C(=O)N[C@@H](CO)C(=O)N[C@H](C(=O)N[C@@H](Cc1c[nH]c2ccccc12)C(=O)N[C@@H](Cc1ccc(O)cc1)C(=O)N[C@H](C(=O)O)C(C)C)[C@@H](C)O` yielded an inhibition of 2%.

Regarding `CC[C@H](C)[C@H](NC(=O)[C@H](Cc1c[nH]cn1)NC(=O)CNC(=O)[C@H](CCC(=O)O)NC(=O)[C@H](CCC(N)=O)NC(=O)[C@H](CC(=O)O)NC(=O)[C@H](CC(N)=O)NC(=O)[C@H](CCCN=C(N)N)NC(=O)[C@H](C)NC(=O)[C@@H]1Cc2ccccc2CN1C(=O)[C@H](C)N)C(=O)N[C@@H](CC(C)C)C(=O)N[C@@H](CCCCN)C(=O)N[C@@H](CCSC)C(=O)N[C@@H](Cc1ccccc1)C(=O)N1CCC[C@H]1C(=O)N[C@@H](CO)C(=O)N[C@H](C(=O)N[C@@H](Cc1c[nH]c2ccccc12)C(=O)N[C@@H](Cc1ccc(O)cc1)C(=O)N[C@H](C(=O)O)C(C)C)[C@@H](C)O` (H-A[Tic]ARNDQEGHILKMFPSTWYV-OH), the inhibition came out at 1%.

Molecule `CC[C@H](C)[C@H](NC(=O)[C@H](Cc1c[nH]cn1)NC(=O)CNC(=O)[C@H](CCC(=O)O)NC(=O)[C@H](CCC(N)=O)NC(=O)[C@H](CC(=O)O)NC(=O)[C@H](CC(N)=O)NC(=O)[C@H](CCCN=C(N)N)NC(=O)[C@H](C)NC(=O)[C@@H]1Cc2ccccc2CN1C(=O)[C@@H](N)CS)C(=O)N[C@@H](CC(C)C)C(=O)N[C@@H](CCCCN)C(=O)N[C@@H](CCSC)C(=O)N[C@@H](Cc1ccccc1)C(=O)N1CCC[C@H]1C(=O)N[C@@H](CO)C(=O)N[C@H](C(=O)N[C@@H](Cc1c[nH]c2ccccc12)C(=O)N[C@@H](Cc1ccc(O)cc1)C(=O)N[C@H](C(=O)O)C(C)C)[C@@H](C)O` (H-C[Tic]ARNDQEGHILKMFPSTWYV-OH) yielded an inhibition of 9%.

The molecule `CC[C@H](C)[C@H](NC(=O)[C@H](Cc1c[nH]cn1)NC(=O)CNC(=O)[C@H](CCC(=O)O)NC(=O)[C@H](CCC(N)=O)NC(=O)[C@H](CC(=O)O)NC(=O)[C@H](CC(N)=O)NC(=O)[C@H](CCCN=C(N)N)NC(=O)[C@H](C)NC(=O)[C@@H]1Cc2ccccc2CN1C(=O)[C@@H](N)CC(=O)O)C(=O)N[C@@H](CC(C)C)C(=O)N[C@@H](CCCCN)C(=O)N[C@@H](CCSC)C(=O)N[C@@H](Cc1ccccc1)C(=O)N1CCC[C@H]1C(=O)N[C@@H](CO)C(=O)N[C@H](C(=O)N[C@@H](Cc1c[nH]c2ccccc12)C(=O)N[C@@H](Cc1ccc(O)cc1)C(=O)N[C@H](C(=O)O)C(C)C)[C@@H](C)O` (H-D[Tic]ARNDQEGHILKMFPSTWYV-OH) gave an inhibition of 8%.
